Converted amounts (≈) assume the structure as drawn.
Assays:
HSV-1 = assay: HSV Antiviral (ELISA) Assay; format: cell-based, herpes simplex virus type 1; conditions: HSV-1, about 24 hours post-infection; for IC50: Human alphaherpesvirus 1, Vero cells, read-out: IC50 (ug/ml) HSV
Experimental: Vero cells (ATCC #CCL-81) are plated on 96-well tissue culture plates at 3.5×10^4 cells per 100 μl tissue culture DMEM (Dulbecco's modified Eagle media) supplemented with 2% fetal bovine serum (FBS) in each well. After overnight incubation @37° C. (in 5% CO2) and 30 minutes prior to infection with HSV-1 (multiplicity of infection equal to 0.006), cells are either untreated, or treated with test compound (multiple concentrations) or reference standard drug control. After approximately 24 hours post-infection incubation @37° C. (in 5% CO2), cells are fixed for ELISA assay. The primary antibody is murine anti-HSV glycoprotein D monoclonal primary antibody and the secondary antibody is goat anti-mouse IgG linked to β-galactosidase. Thus the extent of viral replication is determined by assessing β-galactosidase activity by quantifying the generation of the 4-methyl umbelliferone fluorescent cleavage product after addition of the methyl umbelliferyl-β-D-galactoside (Sigma #M1633) substrate on a microfluorimeter (365 nm for excitation and 450 nm for emission). Antiviral activity (IC50) of the test compound is determined by comparing the flourescence obtained in absence of compound to that obtained in the presence of compound.

HCMV wild-type = assay: HCMV yield assay; format: cell-based, human cytomegalovirus; conditions: human foreskin fibroblasts, reduction of virus yield by 50%; for IC50: Human betaherpesvirus 5, Fibroblast, read-out: IC50 (ug/ml) HCMV
Experimental: Yield assay. Monolayer cultures of human foreskin fibroblasts are infected with HCMV wild-type, typically at a multiplicity of infection equal to 0.2, in the presence of inhibitor compound (varying concentrations). At three days post-infection, total virus produced in these cultures (i.e. virus yield) is assessed by harvesting and titering the virus in 12-well plates of cultured human foreskin fibroblasts (done in the absence of inhibitor). Plaques are quantified at 2 weeks post-infection. An inhibitor of HCMV is identified by the reduction in titer of virus yield in the presence, compared to the titer in the absence of compound. In this assay, the relative anti-HCMV activity of an inhibitor is typically determined by calculating the IC50 or IC90 value, that is, the amount of compound required to reduce the virus yield by 50% or 90%, respectively. Table I describes IC50 data for compounds tested against HCMV.

VZV strain Ellen = assay: VZV Antiviral (ELISA) Assay; format: cell-based, varicella-zoster virus; conditions: human foreskin fibroblast cells, three days; for IC50: Human alphaherpesvirus 3, 72 h, read-out: IC50 (ug/ml) VZV
Experimental: For the generation of stock VZV to be used in the assay, VZV strain Ellen (ATCC #VR-1367) is used to infect human foreskin fibroblast (HFF) cells at low multiplicity (less than 0.1) and incubated overnight at 37° C. in 5% CO2. After the overnight incubation, the mixture of uninfected and VZV-infected HFF infected cells are then harvested and added to each well of 96-well plates (3.5×10^4 cells in 100 1μl DMEM supplemented with 2% FBS) which contain test compound or the reference standard drug control (in 100 μl DMEM supplemented with 2% FBS per well). These cells are incubated for three days at 37° C. in 5% CO2, then fixed for ELISA assay. The primary antibody is murine anti-VZV glycoprotein II monoclonal antibody (Applied Biosystems, Inc. #13-145-100) and the secondary antibody is goat anti-mouse IgG linked to β-galactosidase. Thus the extent of viral replication is determined by assessing β-galactosidase activity by quantifying the generation of the 4-methyl umbelliferone fluorescent cleavage product after addition of the methyl umbelliferyl-β-D-galactoside (Sigma #M1633) substrate on a microfluorimeter (365 nm for excitation 450 nm for emission). Antiviral activity (IC50) of the test compound is determined by comparing the flourescence obtained in absence of compound to that obtained the presence of compound.

Q: How did the IC50 (HSV-1) turn out when `Cc1ccc(S(=O)(=O)n2c(C(C)NC(=S)Nc3ccc(NC(=O)c4ccccc4F)cc3)cc3ccccc32)cc1` (stereo not shown) [Example 1094, 2-Fluoro-N-[4-(3-{1-[1-(toluene-4-sulfonyl)-1H-indol-2-yl]-ethyl}-thioureido)-phenyl]-benzamide] was run?
A: > 10 µg/mL

Q: And the IC50 (HCMV wild-type)?
A: > 10 µg/mL

Q: What about the IC50 (VZV strain Ellen) of the same compound?
A: > 7.5 µg/mL

Q: What does the source list for `CC(NC(=S)Nc1ccc(NC(=O)c2ccccc2F)cc1)c1ccc2ccccc2n1` (stereo not shown) [Example 1095, 2-Fluoro-N-{4-[3-(1-quinolin-2-yl-ethyl)-thioureido]-phenyl}-benzamide]?
A: IC50 (HSV-1): > 10 µg/mL; IC50 (HCMV wild-type): 2.4 µg/mL (≈ 5.4 µM); IC50 (VZV strain Ellen): 7.1 µg/mL (≈ 16 µM)

Q: Which results are given for `CC(NC(=S)Nc1ccc(NC(=O)c2ccccc2F)cc1)c1ccnc2ccccc12` (stereo not shown) [Example 1096, 2-Fluoro-N-{4-[3-(1-quinolin-4-yl-ethyl)-thioureido]-phenyl}-benzamide]?
A: IC50 (HSV-1): > 10 µg/mL; IC50 (HCMV wild-type): 5.7 µg/mL (≈ 12.8 µM); IC50 (VZV strain Ellen): 6.7 µg/mL (≈ 15.1 µM)

Q: `CC(NC(=S)Nc1ccc(NC(=O)c2ccccc2F)cc1)c1cc2ccccc2cn1` (stereo not shown) [Example 1097, 2-Fluoro-N-{4-[3-(1-isoquinolin-3-yl-ethyl)-thioureido]-phenyl}-benzamide] was tested. Which IC50 (HSV-1) did it give?
A: > 10 µg/mL

Q: And the IC50 (HCMV wild-type)?
A: 4 µg/mL (≈ 9 µM)

Q: What about the IC50 (VZV strain Ellen) of the same compound?
A: 5.5 µg/mL (≈ 12.4 µM)

Q: How did the IC50 (HSV-1) turn out when `CC(NC(=S)Nc1ccc(NC(=O)c2ccccc2F)cc1)c1nccc2ccccc12` (stereo not shown) [Example 1098, 2-Fluoro-N-{4-[3-(1-isoquinolin-1-yl-ethyl)-thioureido]-phenyl}-benzamide] was run?
A: 9 µg/mL (≈ 20.2 µM)

Q: What about the IC50 (HCMV wild-type) of the same compound?
A: 3.5 µg/mL (≈ 7.87 µM)

Q: And the IC50 (VZV strain Ellen)?
A: 3.8 µg/mL (≈ 8.55 µM)

Q: `CC(NC(=S)Nc1ccc(NC(=O)c2ccccc2F)cc1)c1ccc2ncccc2c1` (stereo not shown) [Example 1099, 2-Fluoro-N-{4-[3-(1-quinolin-6-yl-ethyl)-thioureido]-phenyl}-benzamide] was tested. Which IC50 (HSV-1) did it give?
A: > 10 µg/mL

Q: What about the IC50 (HCMV wild-type) of the same compound?
A: 5.6 µg/mL (≈ 12.6 µM)

Q: And the IC50 (VZV strain Ellen)?
A: > 7.5 µg/mL

Q: With `CC(NC(=S)Nc1ccc(NC(=O)c2ccccc2F)cc1)c1cnc2ccccc2c1` (stereo not shown) [Example 1100, 2-Fluoro-N-{4-[3-(1-quinolin-3-yl-ethyl)-thioureido]-phenyl}-benzamide] as the compound, how does the IC50 (HSV-1) read?
A: > 10 µg/mL

Q: And the IC50 (HCMV wild-type)?
A: 4.6 µg/mL (≈ 10.3 µM)

Q: What about the IC50 (VZV strain Ellen) of the same compound?
A: 7.3 µg/mL (≈ 16.4 µM)

Q: With `COc1ccccc1C(=O)Nc1ccc(NC(=S)NC(C)c2ccsc2)cc1` (stereo not shown) [Example 1101, 2-Methoxy-N-{4-[3-(1-thiophen-3-yl-ethyl)-thioureido]-phenyl}-benzamide] as the compound, how does the IC50 (HSV-1) read?
A: > 10 µg/mL

Q: And the IC50 (HCMV wild-type)?
A: > 10 µg/mL

Q: And the IC50 (VZV strain Ellen)?
A: 1 µg/mL (≈ 2.43 µM)

Q: Which “IC50 (ug/ml) HSV” value (HSV-1; Vero cells) does the source give for “[1,2,3]Thiadiazole-4-carboxylic acid {4-[3-(5-chloro-pyridin-3-yl)-thioureido]-phenyl}-amide [Example 520]” here?
A: 12 µg/mL

Q: What about the “IC50 (ug/ml) HCMV” value (HCMV wild-type) of the same compound?
A: 0.32 µg/mL

Q: What about the “% inhibition 10 ug/ml VZV” value (VZV strain Ellen; 10 ug/ml) of the same compound?
A: 38%

Q: And the “IC50 (ug/ml) VZV” value (VZV strain Ellen)?
A: >10 µg/mL

Source: patent publication US6380243B1, “Aminopyridine-containing thiourea inhibitors of herpes viruses” (American Home Products Corporation, priority 1998, dated 2002)
